The values that follow come from patent publication US11963941B2, “Use of a fasting mimicking diet to enhance the efficacy of antiestrogens in cancer” (UNIVERSITA' DEGLI STUDI DI GENOVA, priority 2016, dated 2024).

Entries after “also recorded” stand apart in the source; their conditions may differ.

Data set [1] deals with T47D cells. Kind of data set: Cell cycle analysis (G1 arrest). Type of data set: cell-based. Particulars: 10 μM tamoxifen, 24 h, FIG. 2C. The procedure:
(§1) In particular, in the experiments of FIGS. 2A-D, 5×10^5 MCF7, ZR-75-1 or T47D cells were plated in 6-well plates in regular DMEM medium containing 10% FBS. 24 h later, the cell medium was removed and cells were incubated for 24 h either in the same medium (CTR) or in fasting mimicking conditions or a fasting mimicking diet (FMD). 24 h later, 10 μM tamoxifen (Tam) was added to the culture medium where indicated. 24 h later, cells were used for cell cycle analysis or for mRNA extraction and subsequent determination of E2F1, E2F4 and CCNE1 expression by QPCR.

Data set [2] deals with MCF7 cells. Kind of data set: Cell cycle analysis (G1 arrest). Format: cell-based. Particulars: 10 μM tamoxifen, 24 h, FIG. 2A. How it is done:
as §1

For data set [3], the system named is MCF7 cells. Kind of data set: Cell viability in control vs fasting mimicking (FMD) medium. Type of data set: cell-based. The settings on record: FMD = low-glucose (0.5 g/L) DMEM, 1% FBS, vs regular medium, FIG. 1A, 1D. The procedure:
In particular, in the experiments of FIGS. 1A-D, 3×10^3 MCF7 (A, D), ZR-75-1 (B) or T47D (C) cells were plated in 96 well plates in regular DMEM medium containing 10% FBS. 24 h later, the cell medium was removed and cells were incubated for 24 h either in the same medium (CTR) or in low-glucose (0.5 g/L) DMEM medium containing 1% FBS (FMD). 24 h later, tamoxifen (Tam) or fulvestrant (Fulv) at the indicated concentrations were added to the culture medium.

The test system of data set [4] is MCF7 cells. Kind of data set: Short-term viability assay (72 h, sulforhodamine B) with chemotherapeutics. Type of data set: cell-based. The settings on record: FIG. 7. The procedure: In the experiment of FIG. 7, 5×10^3 MCF7 cells/well were plated in 96-well plates in regular DMEM medium containing 10% FBS. 24 h later, the cell medium was removed and cells were incubated for 24 h either in the same medium or in low-glucose (0.5 g/L) DMEM medium containing 1% FBS (fasting mimicking conditions). 24 h later, 10 μM tamoxifen (Tam) was added to the culture medium where indicated. 24 h later, cells were stimulated with doxorubicin or Taxotere at the indicated concentrations. Viability was determined 72 h later in sulforhodamine B assays.

The conditions of data set [5]: literature refs [5], [6]; cited from earlier work.
The test system of data set [6] is MCF7 cells. Type of data set: cell-based. The settings on record: FMD + tamoxifen 5 μM, 24 h.
Data set [7] has as its system T47D cells. Kind of data set: Cell viability in control vs fasting mimicking (FMD) medium. Format: cell-based. The settings on record: FMD = low-glucose (0.5 g/L) DMEM, 1% FBS, vs regular medium, FIG. 1C.
For data set [8], the system named is MCF7 cells. Kind of data set: Gene expression by QPCR. Format: cell-based. The procedure:
as §1
In the experiment of FIG. 4, MCF7, ZR-75-1 or T47D cells were treated as in the experiment of FIG. 2. 24 h after tamoxifen (5 μM) addition, cells were used for protein lysate generation or for mRNA extraction, ER and β-actin were detected by immunoblotting. TTF1 expression was determined by QPCR.
In the experiment of FIG. 6, MCF7, ZR-75-1 or T47D cells were treated as in the experiment of FIG. 2. 24 h after tamoxifen (5 μM) addition, cells were used for RNA extraction or for protein lysate generation. In FIG. 6A, RAD51 expression was detected by QPCR. In FIG. 6B, RAD51 and (β-actin were detected by immunoblotting.

Data set [9] has as its system T47D cells. Kind of data set: Gene expression by QPCR. Type of data set: cell-based.
Data set [10] relates to T47D cells.
The subject of another data set is MCF7 xenografts. Kind of data set: MCF7 xenograft tumor growth.
Data set [11] is classed as in vivo. Particulars: fasting (water only, 48 h) + tamoxifen 30 mg/kg/die; FIG. 8C.
For data set [12], the system named is MCF7 cells. Kind of data set: Global gene expression microarrays. Type of data set: cell-based.
Setting [13] is: FMD + tamoxifen 5 μM, 24 h, FIG. 4B.
The mark [14] stands for this setting: FMD + tamoxifen 5 μM, 24 h, FIG. 6A.
Where [15] appears, read: FMD + tamoxifen 10 μM vs single treatments, FIG. 2D.
[16] abbreviates: FMD + tamoxifen 5 μM, 24 h, FIG. 3.
Setting [17] is: MCF7 treated with tamoxifen and FMD, 4 biological replicates/condition.

For `C[C@]12CC[C@@H]3c4ccc(O)cc4C[C@@H](CCCCCCCCC[S+]([O-])CCCC(F)(F)C(F)(F)F)[C@H]3[C@@H]1CC[C@@H]2O` (some centres unmarked) [fulvestrant], the “induction of a G1 cell cycle arrest, drug + FMD” value in the data set on T47D cells [1] and in the data set with MCF7 cells [2] was “increased the ability” throughout. The “cell viability: potentiation of drug activity by FMD conditions” value in the data set on MCF7 cells [3] is given as “marked increase”.
Consider `COc1cccc2c1C(=O)c1c(O)c3c(c(O)c1C2=O)C[C@@](O)(C(=O)CO)C[C@@H]3O[C@H]1C[C@H](N)[C@H](O)[C@H](C)O1` [doxorubicin], for which, in the data set on MCF7 cells [4] (doxorubicin 100 nM), the “cell viability, triple treatment tamoxifen + doxorubicin + FMD” value is given as “most pronounced reduction in cell viability”.
Turning to `CC(=O)O[C@@]12CO[C@@H]1C[C@H](O)[C@@]1(C)C(=O)[C@H](O)C3=C(C)[C@@H](OC(=O)[C@H](O)[C@@H](NC(=O)OC(C)(C)C)c4ccccc4)C[C@@](O)([C@@H](OC(=O)c4ccccc4)[C@H]21)C3(C)C` [Taxotere, docetaxel], the “cell viability, triple treatment tamoxifen + Taxotere + FMD” value in the data set on MCF7 cells [4] (taxotere 100 nM) was “most pronounced reduction in cell viability”.
For `CO[C@H]1C[C@@H]2CC[C@@H](C)[C@@](O)(O2)C(=O)C(=O)N2CCCC[C@H]2C(=O)O[C@H]([C@H](C)C[C@@H]2CC[C@@H](OCCO)[C@H](OC)C2)CC(=O)[C@H](C)/C=C(\C)[C@@H](O)[C@@H](OC)C(=O)[C@H](C)C[C@H](C)/C=C/C=C/C=C/1C` [everolimus], in data set [5], the significant side effects entry is “stomatitis, anemia and hyperglycemia”.
As to `CC/C(=C(\c1ccccc1)c1ccc(OCCN(C)C)cc1)c1ccccc1` [tamoxifen], the “induction of a G1 cell cycle arrest, drug + FMD” value in the data set on T47D cells [1] was “increased the ability; also recorded: only occurred in response to a combined treatment”; in the data set on MCF7 cells [2] it was “increased the ability”. In addition, the 4E-BP1 phosphorylation state entry with MCF7 cells [6] (FIG. 3) and with T47D cells [10] (setting [16]) was “marked accumulation of the unphosphorylated form” throughout. The “mTOR activity (levels of phosphorylated p70S6K and eIF4E)” value in the data set with MCF7 cells [6] (FIG. 3) and in the data set on T47D cells [10] (setting [16]) was “marked inhibition of mTOR activity” in each case. Moreover, the “RAD51 expression at the protein level” value is reported as “strong RAD51 downregulation” in the data set on MCF7 cells [6] (FIG. 6B) and “strong RAD51 downregulation” in the data set with T47D cells [10] (FMD + tamoxifen 5 μM, 24 h, FIG. 6B). The “cell viability: potentiation of drug activity by FMD conditions” value in the data set with T47D cells [7] and in the data set with MCF7 cells [3] was “strong potentiation” in each case. Moreover, the “TTF1 expression (ERα-mediated transcription)” value in the data set with MCF7 cells [8] (setting [13]) and in the data set on T47D cells [9] (setting [13]) was “increase the ability of tamoxifen to reduce TTF1 expression” throughout. Further, the “RAD51 expression at the mRNA level” value in the data set on MCF7 cells [8] (setting [14]) and in the data set on T47D cells [9] (setting [14]) was “strong RAD51 downregulation” throughout. Further, the “downregulation of cell cycle promoting genes (E2F1, E2F2 and CCNE1)” value in the data set with MCF7 cells [8] (setting [15]) is on record as “more pronounced”; in the data set with T47D cells [9] (setting [15]) it was “more pronounced; also recorded: only occurred in response to a combined treatment”. Further, the HER2 expression result with T47D cells [10] (FMD in combination with tamoxifen 5 μM, FIG. 3) is given as “marked reduction in HER2 expression”. Further, in the data set with MCF7 xenografts (normal diet, tamoxifen 30 mg/kg/die oral gavage, FIG. 8A), the “growth of MCF7 xenografts (tumor volume), drug alone” value was “reduced the growth”. Moreover, the “growth of MCF7 xenografts (tumor volume), drug + fasting” value in the data set on MCF7 xenografts (tamoxifen 30 mg/kg/die oral gavage + fasting (water only, 48 h, once a week), p<0.05) is listed as “significantly more effective than either type of treatment alone”. Also, the “mouse body weight loss, addition of drug to fasting” value in [11] is recorded as “failed to worsen weight losses”. Further, in the data set with MCF7 cells [12] (MCF7, FMD added to tamoxifen vs FMD alone or tamoxifen alone, FIG. 5), the “gene ontology/pathway analysis of differentially expressed genes” value is given as “marked changes in pathways related to DNA repair”. Moreover, in the data set with MCF7 cells [12] (setting [17]), the “BRCA1 Log2 fold change” value is reported as −1.372. In the data set on MCF7 cells [12] (setting [17]), the “EXO1 Log2 fold change” value is reported as −1.583. Besides, in the data set with MCF7 cells [12] (setting [17]), the “PCNA Log2 fold change” value is on record as −1.658. In the data set with MCF7 cells [12] (setting [17]), the “RAD51 Log2 fold change” value was −1.864. In addition, the “TIPIN Log2 fold change” value in the data set with MCF7 cells [12] (setting [17]) is recorded as −1.604.
